Data on 18 molecules can be found in patent EP2204363A1, “New disubstituted phenylpiperidines/piperazines as modulators of dopamine neurotransmission” (NSAB, Filial af NeuroSearch Sweden AB, Sverige, priority 2004, dated 2005).

Like-named read-outs stand apart in the source and are kept apart here.

Data set [1] is described as follows: Activity of compounds of Formula 1 (test not specified).
Data set [2] deals with DOPAC (3,4-dihydroxyphenylacetic acid) in the rat striatum. The data set is described as follows: In vivo neurochemistry: increase of DOPAC in the rat striatum. The conditions noted are these: for ED50: read-out: ED50 DOPAC. The source says: After the behavioural activity sessions, the rats were decapitated and their brains rapidly taken out and put on an ice-cold petri-dish. The limbic forebrain, the striatum, the frontal cortex and the remaining hemispheral parts of each rat were dissected and frozen. Each brain part was subsequently analyzed with respect to its content of monoamines and their metabolites.
The monoamine transmitter substances (NA (noradrenaline), DA (dopamine), 5-HT (serotonin)) as well as their amine (NM (normethanephrine), 3-MT (3-methoxytyramine)) and acid (DOPAC (3,4-dihydroxyphenylacetic acid), 5-HIAA (5-hydroxyindoleacetic acid), HVA (homovanillic acid)) metabolites are quantified in brain tissue homogenates by HPLC separations and electrochemical detection
The analytical method is based on two chromatographic separations dedicated for amines or acids. Two chromatographic systems share a common auto injector with a 10-port valve and two sample loops for simultaneous injection on the two systems. Both systems are equipped with a reverse phase column (Luna C18(2), dp […], 50*2mm i.d., Phenomenex) and electrochemical detection is accomplished at two potentials on glassy carbon electrodes (MF-1000, Bioanalytical Systems, Inc.). The column effluent is passed via a T-connection to the detection cell or to a waste outlet. This is accomplished by two solenoid valves, which block either the waste or detector outlet. By preventing the chromatographic front from reaching the detector, better detection conditions are achieved. […] Detection potentials relative to Ag/AgCl reference are 0.45 and 0.60V. […] Detection potentials relative to Ag/AgCl reference are 0.45 and 0.65V.
ED50 values for the increase of DOPAC in striatum are calculated by curve fitting.

For another data set, the system named is drug-naive rats. The data set is described as follows: In vivo behaviour: locomotor activity in drug-naive rats. The conditions noted are these: ± SEM. The source says:
(§1) Photobeam sensors were spaced 2.5 cm apart.

Another data set has as its system MK-801 pre-treated rats. In words: In vivo behaviour: locomotor activity in MK-801 pre-treated rats. The note with it: MK-801 0.7 mg/kg i.p. 90 minutes before test compound, 30 to 60 minutes after administration, ± SEM.
Source text: as §1

Data set [3] in a line: Metabolic stability in rat liver microsomes. The data set is classed as in vitro ADME. The conditions noted are these: pH 7.4, 37 °C, NADPH, fraction of test compound eliminated after 15 minutes, read-out: turnover at 15 minutes. On the procedure: The protein precipitation was then removed by rejecting the pellet after centrifugation at 10.000 g for 10 minutes (Heraeus, Biofuge fresco) in 4°C. The test compound was analysed using HPLC-MS (Hewlett-Packard 1100MSD Series) with a Zorbax SB-C18 column (2.1*150 mm, 5 µm) using 0.03% formic acid and acetonitrile as mobile phase (gradient) or a Zorbax Eclipse XDB-C18 (3*75 mm, 3.5µm) using 0.03% acetic acid and acetonitrile as mobile phase (gradient).
For orientation: Microsomes from liver hold many membrane-bound enzymes, among them those of drug oxidation.

For data set [4], the system named is levels of dopamine and norepinephrine in the cortex. In words: Microdialysis in awake and freely moving rats (cortex). The data set is classed as in vivo. The note with it: percent of control in relation to baseline.
[5] abbreviates: sc, estimated ED50 on increase of DOPAC in rat striatum after systemic administration (s.c.), maximal effects limited to 350 - 400% of control, range covers 95% of fits.
Where [6] appears, read: drug-naive habituated rats, 11 µmol/kg, recorded between 30 and 60 minutes.
[7] abbreviates: drug-naive habituated rats, 33 µmol/kg, recorded between 30 and 60 minutes.
The mark [8] stands for this setting: drug-naive habituated rats, 100 µmol/kg, recorded between 30 and 60 minutes.
Setting [9] is: drug-naive rats, 11 µmol/kg, recorded for 60 minutes.
The mark [10] stands for this setting: drug-naive rats, 33 µmol/kg, recorded for 60 minutes.
The mark [11] stands for this setting: drug-naive rats, 100 µmol/kg, recorded for 60 minutes.

Consider `CCCN1CCC(c2cccc(S(C)(=O)=O)c2C(F)(F)F)CC1` [4-[3-(methylsulfonyl)-2-(trifluoromethyl)phenyl]-1-propylpiperidine], for which the result in data set [1] was inactive.
Take `CCCN1CCC(c2cccc(S(C)(=O)=O)c2F)CC1` [Example 1, 4-[2-FLUORO-3-(METHYLSULFONYL)PHENYL]-1-PROPYLPIPERIDINE]: in data set [2] (setting [5]), the ED50 was 28 µmol/kg. The Locomotor activity with drug-naive rats (setting [6]) was 1708 ± 922 counts/30 min; with drug-naive rats (setting [7]) it was 1337 ± 141 (P=0.001) counts/30 min; in the data set with drug-naive rats (setting [8]), 1365 ± 460 (P=0.057) counts/30 min; in the data set with drug-naive rats (setting [9]), 9500 ± 617 counts/60 min; with drug-naive rats (setting [10]), 7371 ± 992 counts/60 min; in the data set with drug-naive rats (setting [11]), 8103 ± 1047 counts/60 min. For the same molecule, the “Locomotor activity, MK + example” value in the data set with MK-801 pre-treated rats (33 µmol/kg) is given as 29636 ± 10019 (P=0.08) counts/30 min. Also, the metabolised at 0.25 h in data set [3] turned out to be 3%.
In the case of `CCN1CCC(c2cccc(S(C)(=O)=O)c2F)CC1` [Example 2, 1-ETHYL-4-[2-FLUORO-3-(METHYLSULFONYL)PHENYL]-PIPERIDINE], the metabolised at 0.25 h in data set [3] was determined as 1%. In addition, the “levels of dopamine and norepinephrine in the cortex” value in data set [4] (Figure 2: 50 mol/kg s.c. (so in the source), pf. cortex) is “elevate the levels of dopamine and norepinephrine in the cortex”.
Regarding `CCCN1CCC(c2cccc(S(C)(=O)=O)c2Cl)CC1` [Example 3, 4-[2-CHLORO-3-(METHYLSULFONYL)PHENYL]-1-PROPYLPIPERIDINE], in data set [2] (setting [5]), the median effective dose (ED50) was 9.9 µmol/kg. The Locomotor activity is listed as 6078 ± 605 counts/60 min with drug-naive rats (setting [9]), 3023 ± 246 counts/60 min in the data set with drug-naive rats (setting [10]) and 1327 ± 299 counts/60 min with drug-naive rats (setting [11]). In the data set on MK-801 pre-treated rats (100 µmol/kg (footnote 1)), the “Locomotor activity, MK + example” value was 4911 ± 2953^1 (P=0.08) counts/30 min.
Turning to `CCCN1CCC(c2cccc(S(C)(=O)=O)c2C)CC1` [Example 4, 4-[2-METHYL-3-(METHYLSULFONYL)PHENYL]-1-PROPYLPIPERIDINE], the ED50 in data set [2] (setting [5]) is 58 µmol/kg. In addition, the Locomotor activity in the data set with drug-naive rats (setting [9]) is given as 8972 ± 1124 counts/60 min; in the data set on drug-naive rats (setting [10]) it was 9023 ± 1415 counts/60 min; with drug-naive rats (setting [11]), 4473 ± 924 counts/60 min. In addition, the metabolised at 0.25 h in data set [3] turned out to be 4%.
The like results for `CCCN1CCC(c2cccc(C(F)(F)F)c2C#N)CC1` [Example 7, 2-(1-PROPYLPIPERIDIN-4-YL)-6-(TRIFLUOROMETHYL)BENZONITRILE] were, in that order, 9.7 µmol/kg, 7008 ± 700 counts/60 min, 4694 ± 986 counts/60 min, 2829 ± 358 counts/60 min and 22%.
For the molecule `CCCN1CCC(c2cccc(C(F)(F)F)c2OC)CC1` [Example 8, 4-[2-METHOXY-3-(TRIFLUOROMETHYL)PHENYL]-1-PROPYLPIPERIDINE], the metabolised at 0.25 h in data set [3] was 49%.
On to `CCCN1CCC(c2ccc(Cl)c(C(F)(F)F)c2)CC1` [Example 9 of WO01/46146, reference compound], for which the ED50 in data set [2] (Rattus norvegicus) was found to be 40 µmol/kg.
`CCCN1CCN(c2cccc(C(F)(F)F)c2F)CC1` [Example 9, 1-[2-FLUORO-3-(TRIFLUOROMETHYL)PHENYL]-4-PROPYLPIPERAZINE]: in data set [2] (Rattus norvegicus, sc), the ED50 was found to be 1.9 µmol/kg. Besides, the Locomotor activity in the data set on drug-naive rats (setting [9]) is recorded as 3721 ± 242 counts/60 min; in the data set with drug-naive rats (setting [10]), 3518 ± 435 counts/60 min; with drug-naive rats (setting [11]), 4265 ± 758 counts/60 min. Also, in the data set on MK-801 pre-treated rats (11 µmol/kg (footnote 2)), the “Locomotor activity, MK + example” value is recorded as 5916± 1918^2 (P=0.002) counts/30 min.
In the case of `COCCN1CCN(c2cccc(C(F)(F)F)c2F)CC1` [Example 10, 1-[2-FLUORO-3-(TRIFLUOROMETHYL)PHENYL]-4-(2-METHOXYETHYL)PIPERAZINE], the ED50 in data set [2] (Rattus norvegicus, sc) is 6.2 µmol/kg.
For `CCCN1CCN(c2cccc(Cl)c2Cl)CC1` [Example 11, 1-(2,3-DICHLOROPHENYL)-4-PROPYLPIPERAZINE], the ED50 in data set [2] (Rattus norvegicus, sc) was determined as 3.5 µmol/kg. Moreover, the Locomotor activity worked out at 5149 ± 374 counts/60 min in the data set with drug-naive rats (setting [9]), 4032 ± 828 counts/60 min in the data set on drug-naive rats (setting [10]) and 3299 ± 637 counts/60 min with drug-naive rats (setting [11]).
Turning to `CCN1CCC(c2cccc(S(C)(=O)=O)c2)CC1` [Example 12 of WO01/46145, reference compound], the ED50 in data set [2] (setting [5]) is 154 µmol/kg.
In the case of `CCCN1CCC(c2cccc(C#N)c2C(F)(F)F)CC1` [Example 13, 3-(1-PROPYLPIPERIDIN-4-YL)-2-(TRIFLUORO-METHYL)BENZONITRILE], the values for the Locomotor activity in the data set on drug-naive rats (setting [6]), in the data set on drug-naive rats (setting [7]) and in the data set on drug-naive rats (setting [8]) were 960 ± 710 counts/30 min, 2870 ± 613 (P=0.008) counts/30 min and 4366 ± 1389 (P=0.030) counts/30 min, respectively.
With `CCCN1CCN(c2cccc(C#N)c2C(F)(F)F)CC1` [Example 14, 3-(4-PROPYLP I PE RAZI N-1-YL)-2-(TRI FLUORO-M ETHYL)B ENZON ITRI LE], the ED50 in data set [2] (Rattus norvegicus, sc) was found to be 2.4 µmol/kg.
As to `CCCN1CCC(c2cccc(S(C)(=O)=O)c2C#N)CC1` [Example 15, 2-(METHYLSULFONYL)-6-(1-PROPYLPIPERIDIN-4-YL)BENZONITRILE], the ED50 in data set [2] (setting [5]) is 28 µmol/kg.
For the molecule `CCCN1CCC(c2ccc(F)c(C(F)(F)F)c2)CC1` [Example 43 of WO01/46146, reference compound], the ED50 in data set [2] (estimated ED50 on increase of DOPAC in rat striatum, maximal effects set to 200% of control, range covers 95% of fits) was 35 µmol/kg.
Regarding `CN1CCN2c3ncccc3Cc3ccccc3C2C1` (stereo not drawn) [mirtazapine, reference compound], the “extracellullar norepinephrine and dopamine in the cortex” value in data set [4] (Figure 1: Remeron 10mg/kg s.c., cortex) was “increase predominantly extracellullar norepinephrine and dopamine in the cortex”.
`CCCN1CCC(c2cccc(C(F)(F)F)c2)CC1` [reference compound]: the “ED50 DOPAC” value in data set [2] (estimated ED50 on increase of DOPAC in rat striatum after systemic administration (s.c.), maximal effects limited to 350 - 400% of control, range covers 95% of fits) was 84 (47 - 110) µmol/kg.

In general, ED50 refers to the dose that gives a 50% effect, or the effect in half of the subjects.
